According to patent publication US10519177B2, “Heterocyclic compounds and uses thereof” (Plexxikon Inc., priority 2013, dated 2019):
Where two headings read alike, the source gives them in different places.

Columns and labels:
[1] = biological target: BRD4-BD12 (1-477) (Homo sapiens (Human), UniProt O60885); test: Alphascreen binding assay BRD4-BD12; conditions: BRD4(1 2) H4; read-out: Biochemical activity (IC50 μM) BRD4(1 2) H4
In short: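 In this competition format, compounds displace a biotinylated tetra-acetyl H4 peptide from E. coli-expressed human BRD4 bromodomain constructs captured on nickel chelate beads. The reaction runs at pH 7.5 with 2 mM DTT and detergent for 1 h at room temperature before a 30 min bead step.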

[2] = tested on: MV-4-11 cells; test: Oncology cell growth assay MV-4-11 (CellTiter Glo); assay type: cell-based; conditions: Homo sapiens, MV4-11, 72 h, read-out: Cell activity (IC50 μM) MV-4-11 3d-Growth
In short: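 Growth read by CellTiter Glo luminescence after 72 h compound treatment of MLL-AF4-bearing MV-4-11 cells (3000/well). Titration: 8 points, 1:3 steps, maximum 10 μM, 0.2% DMSO final. Data normalized to DMSO wells, four-parameter fit gives pIC50.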

[3] = tested on: bromodomain; test: at least one of the bromodomain cell assays of Example 57; assay type: cell-based; conditions: at least one of the bromodomain cell assays described in Example 57; read-out: IC50 in at least one of the bromodomain cell assays

Structure (SMILES)	IC50 [1]	IC50 [2]	IC50 [3]	IC50 ([2]; MV-4-11, 3d growth)
Cc1cc(-c2cnc3ccn(CC4CCC(F)(F)CC4)c3c2)cnn1 [P-0286]	< 1 µM	10 to 200 µM	< 10000 nM	
Cn1cc(-c2cnc3c(-c4cnn(CC(F)(F)F)c4)cn(CC4CCC(F)(F)CC4)c3c2)ccc1=O [P-0436, 5-[1-[(4,4-difluorocyclohexyl)methyl]-3-[1-(2,2,2-trifluoroethyl)pyrazol-4-yl]pyrrolo[3,2-b]pyridin-6-yl]-1-methyl-pyridin-2-one]	< 1 µM		< 10000 nM	< 1 µM
Cc1noc(C)c1-c1cnc2c(-c3cnn(C(F)F)c3)cn([C@@H](C)c3ccccn3)c2c1 [P-0514, 4-[3-[1-(difluoromethyl)pyrazol-4-yl]-1-[(1S)-1-(2-pyridyl)ethyl]pyrrolo[3,2-b]pyridin-6-yl]-3,5-dimethyl-isoxazole]	< 1 µM		< 10000 nM	< 1 µM
Cc1noc(C)c1-c1cnc2c(I)cn([C@@H](C)c3ccccn3)c2c1 [P-0572, 4-[3-iodo-1-[(1S)-1-(2-pyridyl)ethyl]pyrrolo[3,2-b]pyridin-6-yl]-3,5-dimethyl-isoxazole]	< 1 µM		< 10000 nM	< 1 µM
[2H]C([2H])(C1CCC(F)(F)CC1)n1cc(-c2cccnc2)c2ncc(-c3c(C)noc3C)cc21 [P-0340, 4-[1-[dideuterio-(4,4-difluorocyclohexyl)methyl]-3-(3-pyridyl)pyrrolo[3,2-b]pyridin-6-yl]-3,5-dimethyl-isoxazole]	< 1 µM	< 1 µM	< 10000 nM	
Cc1noc(C)c1-c1cnc2c(-c3ccc(C#N)cc3)cn(CC3(F)CCC(F)(F)CC3)c2c1 [P-0458, 4-[6-(3,5-dimethylisoxazol-4-yl)-1-[(1,4,4-trifluorocyclohexyl)methyl]pyrrolo[3,2-b]pyridin-3-yl]benzonitrile]	< 1 µM		< 10000 nM	< 1 µM
Cc1noc(C)c1-c1cnc2c(-c3ccc(C=O)cc3)cn(CC3CCC(F)(F)CC3)c2c1 [P-0600, 4-[1-[(4,4-difluorocyclohexyl)methyl]-6-(3,5-dimethylisoxazol-4-yl)pyrrolo[3,2-b]pyridin-3-yl]benzaldehyde]	< 1 µM		< 10000 nM	< 1 µM
Cc1noc(C)c1-c1cnc2c(-c3ccc(NS(C)(=O)=O)cc3)cn(CC3(F)CCCCC3)c2c1 [P-0495, N-[4-[6-(3,5-dimethylisoxazol-4-yl)-1-[(1-fluorocyclohexyl)methyl]pyrrolo[3,2-b]pyridin-3-yl]phenyl]methanesulfonamide]	< 1 µM		< 10000 nM	< 1 µM
Cc1noc(C)c1-c1cnc2c(-c3cnn(C(F)F)c3)cn([C@@H](C)c3ccc(F)cc3)c2c1 [P-0355, 4-[3-[1-(difluoromethyl)pyrazol-4-yl]-1-[(1S)-1-(4-fluorophenyl)ethyl]pyrrolo[3,2-b]pyridin-6-yl]-3,5-dimethyl-isoxazole]	< 1 µM	< 1 µM	< 10000 nM	
COc1cc(-c2cn(CC3(C)CCOCC3)c3cc(-c4c(C)noc4C)cnc23)ccc1C(=O)O [P-0775, 4-[6-(3,5-dimethylisoxazol-4-yl)-1-[(4-methyltetrahydrpyran-4-yl)methyl]pyrrolo[3,2-b]pyridin-3-yl]-2-methoxy-benzoic acid]	< 1 µM		< 10000 nM	< 1 µM
Cc1noc(C)c1-c1cnc2c(-c3ccc(C(C)(C)C(=O)O)cc3)cn(CC3(C)CCOCC3)c2c1 [P-0778, 2-[4-[6-(3,5-dimethylisoxazol-4-yl)-1-[(4-methyltetrahydropyran-4-yl)methyl]pyrrolo[3,2-b]pyridin-3-yl]phenyl]-2-methyl-propanoic acid]	< 1 µM		< 10000 nM	1 to 10 µM
Cc1noc(C)c1-c1cnc2c(-c3ccc(C(=O)O)c(F)c3)cn(CC3CCC(F)(F)CC3)c2c1 [P-0406, 4-[1-[(4,4-difluorocyclohexyl)methyl]-6-(3,5-dimethylisoxazol-4-yl)pyrrolo[3,2-b]pyridin-3-yl]-2-fluoro-benzoic acid]	< 1 µM	< 1 µM	< 10000 nM	
Cc1noc(C)c1-c1cnc2c(-c3cnc(N)nc3)cn(CC3CCC(F)(F)CC3)c2c1 [P-0396, 5-[1-[(4,4-difluorocyclohexyl)methyl]-6-(3,5-dimethylisoxazol-4-yl)pyrrolo[3,2-b]pyridin-3-yl]pyrimidin-2-amine]	< 1 µM	< 1 µM	< 10000 nM	
Cc1noc(C)c1-c1cnc2c(-c3ccc(C(=O)O)c(F)c3F)cn(CC3(F)CCCCC3)c2c1 [P-0476, 4-[6-(3,5-dimethylisoxazol-4-yl)-1-[(1-fluorocyclohexyl)methyl]pyrrolo[3,2-b]pyridin-3-yl]-2,3-difluoro-benzoic acid]	< 1 µM		< 10000 nM	< 1 µM
COC(=O)Cc1ccc(-c2cn(CC3CCCC3)c3cc(-c4c(C)noc4C)cnc23)cc1 [P-0588, methyl 2-[4-[1-(cyclopentylmethyl)-6-(3,5-dimethylisoxazol-4-yl)pyrrolo[3,2-b]pyridin-3-yl]phenyl]acetate]	< 1 µM		< 10000 nM	< 1 µM
Cc1noc(C)c1-c1cnc2c(-c3ccc(C(=O)O)c(F)c3)cn(CC3(F)CCCCC3)c2c1 [P-0469, 4-[6-(3,5-dimethylisoxazol-4-yl)-1-[(1-fluorocyclohexyl)methyl]pyrrolo[3,2-b]pyridin-3-yl]-2-fluoro-benzoic acid]	< 1 µM		< 10000 nM	< 1 µM
Cc1noc(C)c1-c1cnc2c(I)cn(C(CC#N)C3CCCC3)c2c1 (stereo not drawn) [P-0251, 3-cyclopentyl-3-[6-(3,5-dimethylisoxazol-4-yl)-3-iodo-pyrrolo[3,2-b]pyridin-1-yl]propanenitrile]	< 1 µM	< 1 µM	< 10000 nM	
COC(=O)CCc1ccc(-c2cn(CC3CCC(F)(F)CC3)c3cc(-c4c(C)noc4C)cnc23)cc1 [P-0529, methyl 3-[4-[1-[(4,4-difluorocyclohexyl)methyl]-6-(3,5-dimethylisoxazol-4-yl)pyrrolo[3,2-b]pyridin-3-yl]phenyl]propanoate]	< 1 µM		< 10000 nM	< 1 µM
Cc1noc(C)c1-c1cnc2c(I)cn(Cc3cccnn3)c2c1 [P-0528, 4-[3-iodo-1-(pyridazin-3-ylmethyl)pyrrolo[3,2-b]pyridin-6-yl]-3,5-dimethyl-isoxazole]	< 1 µM		< 10000 nM	< 1 µM
COC(=O)c1ccc(-c2cn(CC3CCC4(CC3)CC4)c3cc(-c4c(C)noc4C)cnc23)cc1 [P-0581, methyl 4-[6-(3,5-dimethylisoxazol-4-yl)-1-(spiro[2.5]octan-6-ylmethyl)pyrrolo[3,2-b]pyridin-3-yl]benzoate]	< 1 µM		< 10000 nM	1 to 10 µM
CNC(=O)Nc1ccc(-c2cn(CC3CCC(F)(F)CC3)c3cc(-c4c(C)noc4C)cnc23)cc1 [P-0561, 1-[4-[1-[(4,4-difluorocyclohexyl)methyl]-6-(3,5-dimethylisoxazol-4-yl)pyrrolo[3,2-b]pyridin-3-yl]phenyl]-3-methyl-urea]	< 1 µM		< 10000 nM	< 1 µM
Cc1noc(C)c1-c1cnc2c(-c3ccc(C(=O)O)c(O)c3)cn(CC3(F)CCCCC3)c2c1 [P-0502, 4-[6-(3,5-dimethylisoxazol-4-yl)-1-[(1-fluorocyclohexyl)methyl]pyrrolo[3,2-b]pyridin-3-yl]-2-hydroxy-benzoic acid]	< 1 µM		< 10000 nM	< 1 µM
Cc1noc(C)c1-c1cnc2c(-c3ccc(C#N)cc3)cn(CC3(F)CCCCC3)c2c1 [P-0457, 4-[6-(3,5-dimethylisoxazol-4-yl)-1-[(1-fluorocyclohexyl)methyl]pyrrolo[3,2-b]pyridin-3-yl]benzonitrile]	< 1 µM		< 10000 nM	< 1 µM
COC(=O)Cc1ccc(-c2cn(CC3CCCCC3)c3cc(-c4c(C)noc4C)cnc23)cc1 [P-0589, methyl 2-[4-[1-(cyclohexylmethyl)-6-(3,5-dimethylisoxazol-4-yl)pyrrolo[3,2-b]pyridin-3-yl]phenyl]acetate]	< 1 µM		< 10000 nM	< 1 µM
CNC(=O)c1ccc(-n2cc(CC3CCC(F)(F)CC3)c3cc(-c4c(C)noc4C)cnc32)nc1 [P-0532, 6-[3-[(4,4-difluorocyclohexyl)methyl]-5-(3,5-dimethylisoxazol-4-yl)pyrrolo[2,3-b]pyridin-1-yl]-N-methyl-pyridine-3-carboxamide]	< 1 µM		< 10000 nM	< 1 µM
[2H]C([2H])(C1CCC(F)(F)CC1)n1cc(-c2ccc(C(=O)O)cc2)c2ncc(-c3c(C)noc3C)cc21 [P-0363, 4-[1-[dideuterio-(4,4-difluorocyclohexyl)methyl]-6-(3,5-dimethylisoxazol-4-yl)pyrrolo[3,2-b]pyridin-3-yl]benzoic acid]	< 1 µM	< 1 µM	< 10000 nM	
Cc1noc(C)c1-c1cnc2c(-c3ccc(C#N)nc3)cn(C(c3ccccn3)c3ccccn3)c2c1 [P-0597, 5-[1-[bis(2-pyridyl)methyl]-6-(3,5-dimethylisoxazol-4-yl)pyrrolo[3,2-b]pyridin-3-yl]pyridine-2-carbonitrile]	< 1 µM		< 10000 nM	< 1 µM
Cc1noc(C)c1-c1cnc2c(I)cn(CC3CCCCCCC3)c2c1 [P-0577, 4-[1-(cyclooctylmethyl)-3-iodo-pyrrolo[3,2-b]pyridin-6-yl]-3,5-dimethyl-isoxazole]	< 1 µM		< 10000 nM	< 1 µM
